Assays:
Assay in all cases: Carna kinase panel screen
Assay type in all cases: biochemical
Settings in all cases: read-out: % Inhibition ± SD
[1] = biological target: T1, AKT2 (Homo sapiens, UniProt P31751)
T1 construct: purchased Carna Biosciences
Summary of the method: (§1)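 With ATP concentrations near the respective Km, a 10-point titration of each compound was run. Percent inhibition values were fitted (four-parameter logistic) to determine IC50.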

[2] = biological target: T2, ARG (Homo sapiens, UniProt P42684)
T2 construct: purchased Carna Biosciences
Summary of the method: (§2)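 First, percentage inhibition is computed for each test solution in a 10-point series, ATP held near Km. Then the concentration-inhibition curve is fitted with a four-parameter logistic equation to obtain IC50.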

[3] = biological target: T3, AurA (Homo sapiens, UniProt O14965)
T3 construct: purchased Carna Biosciences
Summary of the method: as §1

[4] = biological target: T4, BRAF (Homo sapiens, UniProt P15056)
T4 construct: purchased Carna Biosciences
Summary of the method: as §1

[5] = biological target: T5, BRAF[V600E] (Homo sapiens, UniProt P15056, V600E)
T5 construct: purchased Carna Biosciences
Summary of the method: as §1

[6] = biological target: T6, CDK7 (Homo sapiens, UniProt P50613)
T6 construct: purchased Carna Biosciences
Summary of the method: as §1

[7] = biological target: T7, CHK1 (Homo sapiens, UniProt O14757)
T7 construct: purchased Carna Biosciences
Summary of the method: as §1

[8] = biological target: T8, CK1e (Homo sapiens, UniProt P49674)
T8 construct: purchased Carna Biosciences
T8 sequence (P49674 whole entry): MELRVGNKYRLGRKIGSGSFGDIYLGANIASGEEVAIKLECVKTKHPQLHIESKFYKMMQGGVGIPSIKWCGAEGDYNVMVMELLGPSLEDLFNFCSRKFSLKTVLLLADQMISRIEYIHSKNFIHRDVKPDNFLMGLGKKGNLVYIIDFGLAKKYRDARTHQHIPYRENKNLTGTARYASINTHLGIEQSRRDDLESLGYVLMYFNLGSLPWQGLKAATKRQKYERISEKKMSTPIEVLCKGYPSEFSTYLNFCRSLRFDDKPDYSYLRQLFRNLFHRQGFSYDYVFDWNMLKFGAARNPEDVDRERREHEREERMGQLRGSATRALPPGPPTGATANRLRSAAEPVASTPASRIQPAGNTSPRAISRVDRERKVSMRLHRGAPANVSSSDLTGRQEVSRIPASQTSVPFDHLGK
Summary of the method: as §1

[9] = biological target: T9, CRIK (Homo sapiens, UniProt O14578)
T9 construct: purchased Carna Biosciences
Summary of the method: as §1

[10] = biological target: T10, DDR1 (Homo sapiens, UniProt Q08345)
T10 construct: purchased Carna Biosciences
Summary of the method: as §2

[11] = biological target: T11, EGFR (Homo sapiens, UniProt P00533)
T11 construct: purchased Carna Biosciences
Summary of the method: as §2

[12] = biological target: T12, EphA4 (Homo sapiens, UniProt P54764)
T12 construct: purchased Carna Biosciences
Summary of the method: as §1

[13] = biological target: T13, EphB2 (Homo sapiens, UniProt P29323)
T13 construct: purchased Carna Biosciences
Summary of the method: as §1

[14] = biological target: T14, FGFR3[K650E] (Homo sapiens, UniProt P22607, K650E)
T14 construct: purchased Carna Biosciences
Summary of the method: as §2

[15] = biological target: T15, FYN (Homo sapiens, UniProt P06241)
T15 construct: purchased Carna Biosciences
Summary of the method: as §1

[16] = biological target: T16, GSK3a (Homo sapiens, UniProt P49840)
T16 construct: purchased Carna Biosciences
Summary of the method: as §1

[17] = biological target: T17, HIPK2 (Homo sapiens, UniProt Q9H2X6)
T17 construct: purchased Carna Biosciences
Summary of the method: as §1

[18] = biological target: T18, JNK2 (Homo sapiens, UniProt P45984)
T18 construct: purchased Carna Biosciences
Summary of the method: as §2

[19] = biological target: T19, MAP2K1 (Homo sapiens, UniProt Q02750)
T19 construct: purchased Carna Biosciences
Summary of the method: as §1

[20] = biological target: T20, MAP2K4 (Homo sapiens, UniProt P45985)
T20 construct: purchased Carna Biosciences
Summary of the method: as §1

[21] = biological target: T21, MAP2K6 (Homo sapiens, UniProt P52564)
T21 construct: purchased Carna Biosciences
Summary of the method: as §1

[22] = biological target: T22, MAP4K2 (Homo sapiens, UniProt Q12851)
T22 construct: purchased Carna Biosciences
T22 sequence (Q12851 whole entry): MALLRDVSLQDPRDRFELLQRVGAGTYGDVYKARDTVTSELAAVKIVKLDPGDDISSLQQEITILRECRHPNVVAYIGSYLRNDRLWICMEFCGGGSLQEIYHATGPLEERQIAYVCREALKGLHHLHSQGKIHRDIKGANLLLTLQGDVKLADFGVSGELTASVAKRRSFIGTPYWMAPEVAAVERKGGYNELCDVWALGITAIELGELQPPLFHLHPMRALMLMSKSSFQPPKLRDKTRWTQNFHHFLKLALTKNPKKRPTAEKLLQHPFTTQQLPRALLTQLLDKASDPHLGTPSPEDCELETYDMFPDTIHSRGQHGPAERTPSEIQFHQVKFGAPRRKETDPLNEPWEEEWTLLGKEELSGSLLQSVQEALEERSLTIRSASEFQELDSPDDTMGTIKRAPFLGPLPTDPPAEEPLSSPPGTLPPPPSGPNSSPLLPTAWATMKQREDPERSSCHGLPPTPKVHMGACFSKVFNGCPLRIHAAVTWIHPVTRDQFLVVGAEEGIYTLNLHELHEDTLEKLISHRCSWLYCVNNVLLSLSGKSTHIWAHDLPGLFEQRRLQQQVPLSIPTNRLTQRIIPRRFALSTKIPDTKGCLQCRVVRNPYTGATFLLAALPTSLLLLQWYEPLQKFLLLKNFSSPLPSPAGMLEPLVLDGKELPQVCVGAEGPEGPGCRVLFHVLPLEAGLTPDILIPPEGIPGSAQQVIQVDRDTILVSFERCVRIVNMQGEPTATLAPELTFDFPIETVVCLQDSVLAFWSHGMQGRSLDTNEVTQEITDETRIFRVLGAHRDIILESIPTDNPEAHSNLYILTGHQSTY
Summary of the method: as §2

[23] = biological target: T23, MARK3 (Homo sapiens, UniProt P27448)
T23 construct: purchased Carna Biosciences
Summary of the method: as §1

[24] = biological target: T24, MARK4 (Homo sapiens, UniProt Q96L34)
T24 construct: purchased Carna Biosciences
Summary of the method: as §1

[25] = biological target: T25, MET (Homo sapiens, UniProt P08581)
T25 construct: purchased Carna Biosciences
Summary of the method: as §1

[26] = biological target: T26, MLK1 (Homo sapiens, UniProt P80192)
T26 construct: purchased Carna Biosciences
Summary of the method: as §1

[27] = biological target: T27, MRCKa (Homo sapiens, UniProt Q5VT25)
T27 construct: purchased Carna Biosciences
T27 sequence (Q5VT25 whole entry): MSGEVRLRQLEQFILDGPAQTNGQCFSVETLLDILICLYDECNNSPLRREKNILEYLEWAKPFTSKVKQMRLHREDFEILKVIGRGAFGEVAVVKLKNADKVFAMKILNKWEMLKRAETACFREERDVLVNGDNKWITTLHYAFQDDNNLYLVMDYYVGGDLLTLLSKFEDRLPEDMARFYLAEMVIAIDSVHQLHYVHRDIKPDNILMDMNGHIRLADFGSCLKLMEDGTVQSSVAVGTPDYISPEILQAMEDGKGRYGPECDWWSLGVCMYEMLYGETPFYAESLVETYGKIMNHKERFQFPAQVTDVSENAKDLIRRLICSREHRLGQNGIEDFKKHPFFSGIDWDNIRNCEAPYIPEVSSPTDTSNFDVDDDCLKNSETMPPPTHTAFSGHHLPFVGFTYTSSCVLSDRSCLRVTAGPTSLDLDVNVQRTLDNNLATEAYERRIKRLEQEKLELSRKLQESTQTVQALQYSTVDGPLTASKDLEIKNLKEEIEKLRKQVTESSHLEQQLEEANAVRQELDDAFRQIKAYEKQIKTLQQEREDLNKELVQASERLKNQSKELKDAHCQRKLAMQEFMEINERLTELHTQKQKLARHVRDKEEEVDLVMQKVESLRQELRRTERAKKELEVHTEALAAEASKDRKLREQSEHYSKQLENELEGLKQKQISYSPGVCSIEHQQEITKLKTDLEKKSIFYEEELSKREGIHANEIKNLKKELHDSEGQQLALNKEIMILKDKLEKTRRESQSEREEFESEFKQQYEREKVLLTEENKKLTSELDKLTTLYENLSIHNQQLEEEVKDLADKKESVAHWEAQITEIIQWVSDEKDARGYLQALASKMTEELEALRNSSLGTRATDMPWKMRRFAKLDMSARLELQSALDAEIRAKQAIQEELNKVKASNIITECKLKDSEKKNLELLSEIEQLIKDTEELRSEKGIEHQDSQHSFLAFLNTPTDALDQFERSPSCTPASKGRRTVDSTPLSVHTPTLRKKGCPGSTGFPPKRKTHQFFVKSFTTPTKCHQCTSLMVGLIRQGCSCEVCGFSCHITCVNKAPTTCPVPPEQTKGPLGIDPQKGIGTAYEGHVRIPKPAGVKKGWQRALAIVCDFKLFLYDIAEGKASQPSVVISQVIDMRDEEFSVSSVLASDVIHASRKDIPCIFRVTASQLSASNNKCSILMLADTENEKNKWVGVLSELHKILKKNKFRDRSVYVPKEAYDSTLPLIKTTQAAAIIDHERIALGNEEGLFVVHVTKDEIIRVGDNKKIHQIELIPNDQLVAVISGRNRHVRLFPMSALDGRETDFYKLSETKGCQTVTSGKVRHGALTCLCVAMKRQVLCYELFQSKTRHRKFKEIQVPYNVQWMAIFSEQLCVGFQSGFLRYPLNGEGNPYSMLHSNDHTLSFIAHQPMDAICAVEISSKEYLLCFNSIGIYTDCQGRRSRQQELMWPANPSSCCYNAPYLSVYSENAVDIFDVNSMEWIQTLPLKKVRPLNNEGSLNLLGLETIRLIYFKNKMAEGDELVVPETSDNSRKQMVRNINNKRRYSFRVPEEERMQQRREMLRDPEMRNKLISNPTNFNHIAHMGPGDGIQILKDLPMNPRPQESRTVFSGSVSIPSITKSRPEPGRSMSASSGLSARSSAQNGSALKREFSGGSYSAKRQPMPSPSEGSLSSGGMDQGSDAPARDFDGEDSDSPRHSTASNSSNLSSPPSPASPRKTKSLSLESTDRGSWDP
Summary of the method: as §1

[28] = biological target: T28, MSK2 (Homo sapiens, UniProt O75676)
T28 construct: purchased Carna Biosciences
Summary of the method: as §1

[29] = biological target: T29, PEK (Homo sapiens, UniProt Q9NZJ5)
T29 construct: purchased Carna Biosciences
T29 sequence (Q9NZJ5 30-1116): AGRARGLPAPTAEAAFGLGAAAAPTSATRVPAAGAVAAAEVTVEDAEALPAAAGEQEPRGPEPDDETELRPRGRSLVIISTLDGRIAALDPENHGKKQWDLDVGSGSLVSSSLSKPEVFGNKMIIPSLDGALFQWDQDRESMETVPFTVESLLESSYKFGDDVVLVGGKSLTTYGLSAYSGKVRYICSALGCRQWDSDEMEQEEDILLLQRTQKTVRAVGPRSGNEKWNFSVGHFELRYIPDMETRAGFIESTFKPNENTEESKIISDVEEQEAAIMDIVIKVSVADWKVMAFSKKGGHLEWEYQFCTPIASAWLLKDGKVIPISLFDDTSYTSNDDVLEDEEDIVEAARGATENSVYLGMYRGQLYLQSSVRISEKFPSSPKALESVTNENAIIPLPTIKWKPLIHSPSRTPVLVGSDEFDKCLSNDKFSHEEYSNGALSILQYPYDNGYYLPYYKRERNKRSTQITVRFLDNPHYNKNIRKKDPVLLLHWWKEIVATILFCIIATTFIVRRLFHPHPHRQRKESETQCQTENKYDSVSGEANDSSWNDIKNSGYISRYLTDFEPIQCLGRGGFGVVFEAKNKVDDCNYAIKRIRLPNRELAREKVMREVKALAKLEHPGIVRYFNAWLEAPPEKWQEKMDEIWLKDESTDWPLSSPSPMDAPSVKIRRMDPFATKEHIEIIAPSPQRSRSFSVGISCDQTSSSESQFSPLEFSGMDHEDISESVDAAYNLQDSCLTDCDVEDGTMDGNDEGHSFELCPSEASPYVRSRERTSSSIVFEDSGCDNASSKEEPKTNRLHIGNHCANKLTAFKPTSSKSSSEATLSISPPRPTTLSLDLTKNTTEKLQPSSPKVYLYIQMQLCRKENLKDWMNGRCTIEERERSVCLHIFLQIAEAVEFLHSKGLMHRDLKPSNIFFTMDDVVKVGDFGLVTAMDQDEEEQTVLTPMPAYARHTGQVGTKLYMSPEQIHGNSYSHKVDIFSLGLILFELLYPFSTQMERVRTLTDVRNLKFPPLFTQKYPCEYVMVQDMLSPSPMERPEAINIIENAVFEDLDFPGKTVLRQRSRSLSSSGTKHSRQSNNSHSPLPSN
Summary of the method: as §1

[30] = biological target: T30, PGK (Homo sapiens, UniProt Q13976)
T30 construct: purchased Carna Biosciences
Summary of the method: as §2

[31] = biological target: T31, PKCh (Homo sapiens, UniProt P24723)
T31 construct: purchased Carna Biosciences
Summary of the method: as §1

[32] = biological target: T32, PKD1 (Homo sapiens, UniProt Q15139)
T32 construct: purchased Carna Biosciences
Summary of the method: as §2

[33] = biological target: T33, PLK1 (Homo sapiens, UniProt P53350)
T33 construct: purchased Carna Biosciences
T33 sequence (P53350 whole entry): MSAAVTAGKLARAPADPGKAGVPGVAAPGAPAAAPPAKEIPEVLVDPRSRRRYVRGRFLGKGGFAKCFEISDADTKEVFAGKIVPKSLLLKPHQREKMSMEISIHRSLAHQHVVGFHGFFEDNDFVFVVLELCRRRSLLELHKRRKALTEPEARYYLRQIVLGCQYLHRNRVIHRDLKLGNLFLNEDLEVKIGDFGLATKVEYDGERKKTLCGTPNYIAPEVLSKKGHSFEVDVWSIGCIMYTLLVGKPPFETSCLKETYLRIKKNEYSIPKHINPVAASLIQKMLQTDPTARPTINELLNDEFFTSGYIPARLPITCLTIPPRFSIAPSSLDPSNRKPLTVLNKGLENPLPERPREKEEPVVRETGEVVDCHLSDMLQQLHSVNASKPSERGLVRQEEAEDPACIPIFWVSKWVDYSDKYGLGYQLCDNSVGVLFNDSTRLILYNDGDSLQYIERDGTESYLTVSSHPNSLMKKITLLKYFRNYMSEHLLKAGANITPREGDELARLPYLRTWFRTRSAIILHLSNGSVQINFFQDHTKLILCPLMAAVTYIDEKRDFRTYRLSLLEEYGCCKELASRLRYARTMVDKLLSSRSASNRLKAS
Summary of the method: as §1

[34] = biological target: T34, PRKX (Homo sapiens, UniProt P51817)
T34 construct: purchased Carna Biosciences
T34 sequence (P51817 whole entry): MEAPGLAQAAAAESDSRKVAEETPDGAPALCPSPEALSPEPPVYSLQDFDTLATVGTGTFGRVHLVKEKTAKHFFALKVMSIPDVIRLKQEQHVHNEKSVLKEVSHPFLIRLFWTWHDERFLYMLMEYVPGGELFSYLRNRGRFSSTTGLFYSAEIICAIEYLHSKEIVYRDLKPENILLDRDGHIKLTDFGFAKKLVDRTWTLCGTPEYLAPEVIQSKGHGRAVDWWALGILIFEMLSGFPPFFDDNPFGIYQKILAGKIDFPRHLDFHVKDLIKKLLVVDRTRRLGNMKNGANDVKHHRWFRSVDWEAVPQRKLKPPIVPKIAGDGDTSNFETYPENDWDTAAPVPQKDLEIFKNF
Summary of the method: as §1

[35] = biological target: T35, RET (Homo sapiens, UniProt P07949)
T35 construct: purchased Carna Biosciences
Summary of the method: as §2

[36] = biological target: T36, RON (Homo sapiens, UniProt Q04912)
T36 construct: purchased Carna Biosciences
Summary of the method: as §1

[37] = biological target: T37, SGK (Homo sapiens, UniProt O00141)
T37 construct: purchased Carna Biosciences
Summary of the method: as §1

[38] = biological target: T38, SRM (Homo sapiens, UniProt Q9H3Y6)
T38 construct: purchased Carna Biosciences
Summary of the method: as §1

[39] = biological target: T39, SRPK1 (Homo sapiens, UniProt Q96SB4)
T39 construct: purchased Carna Biosciences
Summary of the method: as §1

[40] = biological target: T40, SYK (Homo sapiens, UniProt P43405)
T40 construct: purchased Carna Biosciences
Summary of the method: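 10-pt curves; [ATP] ~Km; IC50 by 4PL fit of % inhibition.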

[41] = biological target: T41, TAK1 (Homo sapiens, UniProt O43318)
T41 construct: purchased Carna Biosciences
Summary of the method: as §1

[42] = biological target: T42, TSSK1 (Homo sapiens, UniProt Q9BXA7)
T42 construct: purchased Carna Biosciences
Summary of the method: as §1

[43] = biological target: T43, p70S6K (Homo sapiens, UniProt P23443)
T43 construct: purchased Carna Biosciences
Summary of the method: as §1

CC[C@H](Nc1nc(NCc2cnc(C)cc2C)c2ncn(C(C)C)c2n1)[C@@H](C)O [Fadraciclib, 2-pentanol, 3-[[6-[[(4,6-dimethyl-3-pyridinyl)methyl]amino]-9-(1-methylethyl)-9Hpurin-2-yl]amino]-, (2R,3S)]
inhibition at 1 µM [1]: 1.5 ± 0.1% | inhibition at 1 µM [2]: 1.8 ± 0.1% | inhibition at 1 µM [3]: -16.2 ± 0.4% | inhibition at 1 µM [4]: -8.4 ± 1% | inhibition at 1 µM [5]: -1.9 ± 0.1% | inhibition at 1 µM [6]: 86.7 ± 10.9% | inhibition at 1 µM [7]: 1.3% | inhibition at 1 µM [8]: 19.8 ± 0.5% | inhibition at 1 µM [9]: -1.2% | inhibition at 1 µM [10]: -9.3 ± 0.1% | inhibition at 1 µM [11]: -10.8 ± 0.4% | inhibition at 1 µM [12]: 1% | inhibition at 1 µM [13]: 5 ± 0.2% | inhibition at 1 µM [14]: 5.6% | inhibition at 1 µM [15]: 7.4 ± 0.3% | inhibition at 1 µM [16]: 19.3 ± 1.3% | inhibition at 1 µM [17]: 2.5 ± 0.1% | inhibition at 1 µM [18]: -19.3 ± 2.2% | inhibition at 1 µM [19]: -6.8 ± 0.1% | inhibition at 1 µM [20]: -2.7 ± 0.1% | inhibition at 1 µM [21]: 0.7% | inhibition at 1 µM [22]: 2 ± 0.1% | inhibition at 1 µM [23]: -0.9 ± 0.1% | inhibition at 1 µM [24]: -5.1 ± 0.4% | inhibition at 1 µM [25]: -8.3 ± 0.1% | inhibition at 1 µM [26]: -11.2 ± 0.1% | inhibition at 1 µM [27]: -14.8 ± 0.1% | inhibition at 1 µM [28]: -3.7% | inhibition at 1 µM [29]: 0.3% | inhibition at 1 µM [30]: -21.7 ± 0.2% | inhibition at 1 µM [31]: -6.1 ± 0.1% | inhibition at 1 µM [32]: 12.4 ± 0.5% | inhibition at 1 µM [33]: 5.7 ± 0.3% | inhibition at 1 µM [34]: -4.2% | inhibition at 1 µM [35]: 3.4 ± 0.1% | inhibition at 1 µM [36]: 1.6 ± 0.1% | inhibition at 1 µM [37]: -0.8% | inhibition at 1 µM [38]: 3.5 ± 0.1% | inhibition at 1 µM [39]: 5.9 ± 0.2% | inhibition at 1 µM [40]: 2.2 ± 0.1% | inhibition at 1 µM [41]: 0.3% | inhibition at 1 µM [42]: 16 ± 0.5% | inhibition at 1 µM [43]: 5.6 ± 0.2%

From paper PMC7347136 (PLoS ONE, 2020)
